Reference: US7045152B2, “Treating pulmonary disorders with gaseous agent causing repletion of GSNO” (Duke University, priority 1999, dated 2006)

Experiments:
Type in all cases: in vivo, human
ARDS = assay: Inhaled gas treatment of patients with ARDS (Examples II, VI, VII, VIII)
cystic fibrosis = assay: Inhaled gas / nebulized treatment of patients with cystic fibrosis (Examples IV, IX, XI, XII)
asthma = assay: Inhaled gas treatment of patients with asthma (Examples III, X); conditions: Example III; child, status asthmaticus, intubated; 20 ppm in nitrogen

`CSN=O` [Methylthionitrite] showed a PaO2 (ARDS; Example VI, person, AML, ARDS, intubated, 20 parts per million oxygen, from PO2 40 on 100% oxygen) of 70 mm Hg.
With `[Na+].[Na+].[O-][N+]([O-])=NO` [Angeli's salt, reference compound] the sputum production (cystic fibrosis; Example XI, 100 mM in 3 cc normal saline nebulized Q 6 hours, over two days, after HNO) was “decreases in sputum production”.
With `COS(=O)N=O` (centres unmarked) [methylnitrososulfinate] the airway pressures (asthma) was “airway pressures decrease”.
For `CCON=O` [Ethylnitrite], the PaO2 (ARDS; Example VII, ENO in nitrogen started again (arrow D), from 43) was 49 mm Hg, the PaO2 (ARDS; Example VII, ENO stopped (arrow C), from 46) was 43 mm Hg and the blood pressure (ARDS; Example VII, hemodynamically unstable patient, ENO 40 ppm in nitrogen) was “stabilized”. For the same compound, the PaO2 (ARDS; Example VII, over the following 12 hours on ENO, progressively less responsive) was 37 millimeters of mercury, the PaO2 (ARDS; Example VII, person, viral pneumonia progressed to ARDS, initial ENO 40 ppm in nitrogen (arrow A), from 39 on 100% oxygen) was 48 mm Hg and the PaO2 (ARDS; Example VIII, person, ARDS, inhaled 10 ppm in nitrogen for three days, from 50) was 40 mm Hg. For the same compound, the “GSNO levels in the airway lining fluid” value (cystic fibrosis; human, in vivo) was “increase”, the blood gases (cystic fibrosis; human, in vivo) was “improved” and the pulmonary hemorrhage (cystic fibrosis; human, in vivo) was “the hemorrhage stops”. The state of health (cystic fibrosis; human, in vivo) was “reverts to their normal state of health”.
In the case of `CC(=O)N[C@@H](CS)C(=O)O` [N-acetylcysteine, reference compound], the PaO2 (ARDS; Example VII, nebulized N-acetylcysteine added to ENO (arrow B), from 37) is reported as 46 mm Hg.
